Test [1] relates to R-(-)-2,2-DMCPCA-hydrolase. Kind of test: Determination of activity of R-(-)-2,2-DMCPCA-hydrolase, microorganism suspension. As to conditions: phosphate buffer 10 mmol pH 7.0, 0.2 percent by weight substrate, 3 hours. It counts as cell-based, Comamonas acidovorans A:18 (DSM No. 6315). As for the experimental part:
To determine the activity of the hydrolase, the microorganism suspension was adjusted to an optical density of 0.5 at 650 nm. As a medium, a phosphate buffer (10 mmol), pH 7.0, with 0.2 percent by weight of R,S-2,2-DMCPCA, was used. […] The NH4^+ released by the hydrolase or the R-(-)-2,2-DMCPCS was measured and the activity reacted as g of R-(-)-2,2-DMCPCA was expressed /1/h/ optical density at 650 nm, provided that 1 mmol of formed NH4^+ equals 1 mmol of reacted R-(-)-2,2-DMCPCA.

Test [2] has as its system R-(-)-2,2-DMCPCA-hydrolase. Kind of test: Hydrolase activity during biotransformation with whole cells. It counts as cell-based, Bacterium sp. VIII:II (DSM No. 6316). The settings on record: 0.2 percent by weight substrate; otherwise conditions of Example 3. How it is done: (§1) To determine the activity of the hydrolase, the microorganism suspension was adjusted to an optical density of 0.5 at 650 nm. As a medium, a phosphate buffer (10 mmol), pH 7.0, with 0.2 percent by weight of R,S-2,2-DMCPCA, was used. This suspension was incubated for 3 hours at 30° C. with shaking. The NH4^+ released by the hydrolase or the R-(-)-2,2-DMCPCS was measured and the activity reacted as g of R-(-)-2,2-DMCPCA was expressed /1/h/ optical density at 650 nm, provided that 1 mmol of formed NH4^+ equals 1 mmol of reacted R-(-)-2,2-DMCPCA.
(§2) Comamonas acidovorans A:18 was incubated on mineral salt medium-agar plates with glycerin as a C-source and ammonium sulfate as an N-source for 2 days at 30° C. With these plated-out microorganisms, an initial culture medium with the same composition was inoculated and incubated for 2 days at 30° C. […] After an incubation of about 25 hours at 37° C., R-(-)-2,2-DMCPCA was completely reacted to R-(-)-2,2-DMCPCS, which corresponded to an optical purity (ee) of 100 percent and an analytically measured yield in S-(+)-2,2-DMCPCA of 46.7 percent. […]
In contrast to Example 3, the biotransformation in this microorganism was performed with 0.2 percent by weight of R,S-(±)-2,2-DMCPCA, and the activity of the hydrolase was determined as 0.13 g/1/h/OD650nm.

The test system of test [3] is R-(-)-2,2-DMCPCA-hydrolase. The description is as above. It counts as cell-based, Pseudomonas sp. NSAK:42 (DSM No. 6433). As to conditions: 0.2 percent by weight substrate; otherwise conditions of Example 3. As for the experimental part:
as §1, §2
Analogously to Example 1, Pseudomonas sp. […] The biotransformation was performed with 0.2 percent by weight of R,S-(±)-2,2-DMCPCA, and the activity of the hydrolase was determined as 0.34 g/1/h/OD650nm.

Test [4] has as its system immobilized biocatalyst (polyethylene imine/glutaraldehyde treated cells). Kind of test: Activity of immobilized cells (immobilized biocatalyst). It counts as cell-based, Comamonas acidovorans A:18. The settings on record: cells immobilized by polyethylene imine/glutaraldehyde treatment. How it is done:
After induction (corresponding to Example 3), the cells of Comamonas acidovorans A:18, were harvested. These cells were immobilized by a polyethylene imine/glutaraldehyde treatment (corresponding to Czechoslovakian Patent No. 251,111). […] The dry weight of the biocatalyst corresponded to 32 percent of the moist weight. Then, the biocatalyst (with 55 g moist weight) was suspended in 800 ml of boric acid (10 mM, pH 9.0) with 16 g of R,S-(±)-2,2-DMCPCA. After an incubation time of 68.8 hours at 37 C and at a stirring speed of 200 rpm, R-(-)-2,2-DMCPCA was completely reacted to R-(-)-2,2-DMCPCS, which corresponded to an optical purity (ee) of 98.2 percent and an analytically measured yield in S-(+)-2,2-DMCPCA of 40 percent.

Test [5] has as its system cell-free enzyme extract (R-(-)-2,2-DMCPCA-hydrolase). Kind of test: Activity of cell-free enzyme extract. It counts as biochemical, Comamonas acidovorans A:18. The settings on record: 30 °C; phosphate buffer 10 mM pH 7.0; 0.2 percent by weight R,S-(±)-2,2-DMCPCA; about 0.8 mg of protein. How it is done:
After induction, the cells of Comamonas acidovorans A:18 were concentrated to an optical density at 650 nm from 210 to 95 ml in the HEPES buffer (10 mM, pH 7.0). Then, the cells were broken down twice in the French press at a pressure of 1200 bars. To obtain a cell-free enzyme extract, all of this material was then centrifuged at 20,000 rpm for 20 minutes. In this cell-free enzyme extract, the amount of protein (measured according to the Bradford method) was then determined as 39.3 mg of protein/ml. To determine the activity of these cell-free enzymes, 20 microliters (about 0.8 mg of protein) of this cell-free enzyme extract was taken up in 4 ml of phosphate buffer (10 mM, pH 7.0), containing 0.2 percent by weight of R,S-(±)-2,2-DMCPCA and incubated at 30° C. Here, 2.5 g of R-(-)-2,2-DMCPCA/h/g of protein (3.64 micromol/min/g of protein) was converted to the corresponding acid.

Where “and” joins values, the source holds several entries; their conditions need not be identical. Identical values can stand only once.

The results in this text go back to patent US5273903A, “Biotechnological process for the production of S-(+)-2,2-dimethylcyclopropanecarboxamide” (Lonza Ltd., priority 1991, dated 1993).

`CC1(C)CC1C(N)=O` (racemic) [R,S-(±)-2,2-DMCPCA, R,S-(±)-2,2-dimethylcyclopropanecarboxamide]: the “hydrolase Activity” value worked out at 0.25 g/l/h/OD650 in test [1] (25 °C); 0.5 g/l/h/OD650 in test [1] (30 °C); 1.0 g/l/h/OD650 in test [1] (37 °C); 1.5 g/l/h/OD650 in test [1] (45 °C); 1.8 g/l/h/OD650 in test [1] (48 °C); 1.9 g/l/h/OD650 in test [1] (55 °C). For the same molecule, in test [1] (65 °C), the “hydrolase Activity” value was found to be 0 g/l/h/OD650. For the same molecule, the “activity of the hydrolase” value is recorded as 0.13 g/1/h/OD650nm in test [2] and 0.34 g/1/h/OD650nm in test [3]. Besides, the “activity of the immobilized biocatalyst” value in test [4] is 1.6 micromol/min g of dry weight.
As to `CC1(C)C[C@H]1C(N)=O` [R-(-)-2,2-DMCPCA, R-(-)-2,2-dimethylcyclopropanecarboxamide], in test [5], the “converted to the corresponding acid” value is 2.5 g/h/g of protein and 3.64 micromol/min/g of protein.
